Reference: publication PMC7893776, “Selecting an anti-malarial clinical candidate from two potent dihydroisoquinolones” (Malaria Journal, 2021)

Columns and labels:
Type in all cases: in vitro ADME
[1] = Microsomal stability, mouse; conditions: mouse microsomes; for CLint in vitro: independent replicate to Table 4; for CLint in vivo: scaled up using PBSF
Procedure: (§1) The metabolic stability assay was performed by incubating compounds individually (0.8, 4, or 20 µM) with mouse, rat, dog and human liver microsomes (Fisher, 0.5 mg/mL protein concentration) at 37 °C. The metabolic reaction was initiated by the addition of a NADPH-regenerating system and quenched at various time points by the addition of acetonitrile according to a published method.
(§2) The remaining concentration of each compound was measured as a ratio of peak area to the internal standard. The log peak area ratio was plotted vs. time (h), and the slope was determined to calculate the elimination rate constant [k = (− 2.303) * slope]. If deviation from first order kinetics was evident, only the initial linear portion of the plot was used to determine the rate constate, k. The half-life (h) was calculated as t1/2 = 0.693/k. Intrinsic clearance in vitro was calculated as CLintin vitro = (1000)*(0.693/t1/2*60)/0.5, where microsomal concentration in the reaction solution was 0.5 mg/mL; 1000 and 60 are scaling factors for volume (µL) and time (min), respectively. The intrinsic in vitro clearance was scaled to the intrinsic in vivo clearance using physiology based scaling factor (PBSF): CLint in vivo= CLint in vitro *PBSF: (microsome protein/gram liver) * (gram liver/kg b.w.), with PBSF: 47 (mouse), 47(rat), 58 (dog), 32 (human); and liver weight proportions: 54.9 (mouse), 36.6 (rat), 32.9 (dog) 25.7 (human).

[2] = Microsomal stability, rat; conditions: rat microsomes; for CLint in vitro: independent replicate to Table 4; for CLint in vivo: scaled up using PBSF
Procedure: as §1, §2

[3] = Microsomal stability, human; conditions: human microsomes; for CLint in vitro: independent replicate to Table 4; for CLint in vivo: scaled up using PBSF
Procedure: as §1, §2

[4] = Microsomal stability, dog; conditions: dog microsomes; for CLint in vitro: independent replicate to Table 4; for CLint in vivo: scaled up using PBSF
Procedure: as §1, §2

Compound `N#Cc1cc(NC(=O)[C@@H]2c3ccccc3C(=O)N(CC(F)(F)F)[C@H]2c2cn[nH]c2)ccc1F` [(−)-SJ311] has a CLint ([1]; 0.8 µM) of under 7 µl/min/mg protein, a t1/2 ([1]; 0.8 µM) of over 4 h and a CLint ([2]; 0.8 µM) of under 7 µl/min/mg protein. The t1/2 ([2]; 0.8 µM) was over 4 h, the CLint ([3]; 0.8 µM) was under 7 µl/min/mg protein and the t1/2 ([3]; 0.8 µM) was over 4 h. The CLint ([4]; 0.8 µM) was under 7 µl/min/mg protein and the t1/2 ([4]; 0.8 µM) was over 4 h.

With `N#Cc1cc(NC(=O)[C@@H]2c3ccccc3C(=O)N(CC(F)(F)F)[C@H]2c2cccnc2)ccc1F` [(-)-SJ733] the CLint ([1]; 0.8 µM) was 32.1 ± 2.1 µl/min/mg protein, the t1/2 ([1]; 0.8 µM) was 0.8 ± 0.1 h and the CLint in vitro ([1]; 0.8 µM) was 30.6 ± 1.4 µl/min/mg protein. The CLint in vivo ([1]; 0.8 µM) was 71.7 ± 3.4 mL/min/kg, the CLint in vitro ([1]; 4 µM) was 26.9 ± 0.6 µl/min/mg protein and the CLint in vivo ([1]; 4 µM) was 63.0 ± 2.1 mL/min/kg. The CLint in vitro ([1]; 20 µM) was 10.5 ± 0.4 µl/min/mg protein, the CLint ([2]; 0.8 µM) was under 7 µl/min/mg protein and the t1/2 ([2]; 0.8 µM) was over 4 h. The CLint in vitro ([2]; 0.8 µM) was under 7 µl/min/mg protein, the CLint in vivo ([2]; 0.8 µM) was under 11.7 mL/min/kg and the CLint in vitro ([2]; 4 µM) was under 7 µl/min/mg protein. The CLint in vivo ([2]; 4 µM) was under 11.7 mL/min/kg, the CLint in vitro ([2]; 20 µM) was under 7 µl/min/mg protein and the CLint in vivo ([2]; 20 µM) was under 11.7 mL/min/kg. The CLint ([3]; 0.8 µM) was 61.7 ± 13.2 µl/min/mg protein, the t1/2 ([3]; 0.8 µM) was 0.4 ± 0.1 h and the CLint in vitro ([3]; 0.8 µM) was 52.4 ± 1.1 µl/min/mg protein. The CLint in vivo ([3]; 0.8 µM) was 47.2 ± 1.0 mL/min/kg, the CLint in vitro ([3]; 4 µM) was 40.4 ± 0.9 µl/min/mg protein and the CLint in vivo ([3]; 4 µM) was 36.4 ± 0.8 mL/min/kg. It also gave a CLint in vitro ([3]; 20 µM) of 25.3 ± 0.4 µl/min/mg protein, a CLint in vivo ([3]; 20 µM) of 22.7 ± 0.3 mL/min/kg and a CLint ([4]; 0.8 µM) of 10.9 ± 1.5 µl/min/mg protein. The t1/2 ([4]; 0.8 µM) was 2.2 ± 0.4 h, the CLint in vitro ([4]; 0.8 µM) was 9.8 ± 0.4 µl/min/mg protein and the CLint in vivo ([4]; 0.8 µM) was 14.1 ± 0.5 mL/min/kg. It also gave a CLint in vitro ([4]; 4 µM) of 9.5 ± 0.3 µl/min/mg protein, a CLint in vivo ([4]; 4 µM) of 13.7 ± 0.5 mL/min/kg and a CLint in vitro ([4]; 20 µM) of 6.0 ± 0.4 µl/min/mg protein. For the same compound, the CLint in vivo ([4]; 20 µM) was 8.6 ± 0.6 mL/min/kg.
